Source: US10662194B2, “Substituted 6-anilino-9-heterocyclylpurine derivatives for inhibition of plant stress” (UNIVERZITA PALACKEHO V OLOMOUCI, priority 2014, dated 2020)

Tests used:
recombinant AtCKX2 = target: T1, recombinant AtCKX2 (Arabidopsis thaliana, UniProt Q9FUJ3); assay: Inhibition of cytokinin oxidase/dehydrogenase activity (PMS/MTT microtitre assay); type: biochemical
T1 construct: made in house; host or cells: S. cerevisiae strain 23344c ura-
T1 sequence (Q9FUJ3 23-501): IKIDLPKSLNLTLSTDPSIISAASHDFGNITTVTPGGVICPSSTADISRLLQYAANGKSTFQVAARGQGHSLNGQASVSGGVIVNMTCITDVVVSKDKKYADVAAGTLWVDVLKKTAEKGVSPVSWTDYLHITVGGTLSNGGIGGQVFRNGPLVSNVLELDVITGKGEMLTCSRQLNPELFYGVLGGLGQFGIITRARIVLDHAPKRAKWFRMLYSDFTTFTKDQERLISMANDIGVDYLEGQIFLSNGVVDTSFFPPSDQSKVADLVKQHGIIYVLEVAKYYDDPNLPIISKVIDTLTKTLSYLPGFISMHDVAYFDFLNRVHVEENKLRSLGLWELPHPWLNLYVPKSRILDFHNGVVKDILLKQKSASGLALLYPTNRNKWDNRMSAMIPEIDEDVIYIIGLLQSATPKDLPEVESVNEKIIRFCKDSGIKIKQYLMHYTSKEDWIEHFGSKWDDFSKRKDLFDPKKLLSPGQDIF
Protocol: IC50 measurements were done using the assay in microtitre plate. Each well contained 100 μL of PMS/MTT [phenazine methosulfate/3-(4,5-dimethylthiazol-2-yl)-2,5-diphenyltetrazolium bromide] reaction mixture (final concentrations: 0.1 M KH2PO4, pH 7.4, 1 mM MTT, 0.2 mM PMS) containing the tested compound (3×10^−7 M-3×10^−4 M) and 30 μM N^6-isopentenyladenine (iP) as a substrate. 100 μL of cell-free growth medium of S. cerevisiae strain 23344c ura^− harboring the plasmid pYES2-AtCKX2 was directly used as a source of AtCKX2. Plates were incubated in the dark for 30 min at 37° C. and the enzymatic reaction was stopped by 25 μL of 35% acetic acid. The absorbance at 578 nm was measured using spectrophotometer Tecan. Absorbance of the sample without iP was subtracted.
The IC50 value, the compound concentration that inhibits the enzyme activity to 50%, was calculated from the obtained dose response curves. The values shown in Table 7 are means of three replicates and the entire test was repeated at least twice. […] Compound 12 is an effective inhibitor of AtCKX2 activity, app. 3-times stronger that thidiazuron and only app. 3-times weaker than the structurally related compound INCYDE (2-chloro-6-(3-methoxyanilino)purine).

AHK3 = target: T2, AHK3 (Arabidopsis thaliana, UniProt Q9C5U1); assay: Escherichia coli cytokinin receptor activation assay (AHK3); type: cell-based; conditions: 10^−7 M-5×10^−5 M, compared to trans-zeatin, FIG. 1
T2 construct: expressed in transfected cells; host or cells: Escherichia coli strain KMI001
T2 sequence (Q9C5U1 1-1036): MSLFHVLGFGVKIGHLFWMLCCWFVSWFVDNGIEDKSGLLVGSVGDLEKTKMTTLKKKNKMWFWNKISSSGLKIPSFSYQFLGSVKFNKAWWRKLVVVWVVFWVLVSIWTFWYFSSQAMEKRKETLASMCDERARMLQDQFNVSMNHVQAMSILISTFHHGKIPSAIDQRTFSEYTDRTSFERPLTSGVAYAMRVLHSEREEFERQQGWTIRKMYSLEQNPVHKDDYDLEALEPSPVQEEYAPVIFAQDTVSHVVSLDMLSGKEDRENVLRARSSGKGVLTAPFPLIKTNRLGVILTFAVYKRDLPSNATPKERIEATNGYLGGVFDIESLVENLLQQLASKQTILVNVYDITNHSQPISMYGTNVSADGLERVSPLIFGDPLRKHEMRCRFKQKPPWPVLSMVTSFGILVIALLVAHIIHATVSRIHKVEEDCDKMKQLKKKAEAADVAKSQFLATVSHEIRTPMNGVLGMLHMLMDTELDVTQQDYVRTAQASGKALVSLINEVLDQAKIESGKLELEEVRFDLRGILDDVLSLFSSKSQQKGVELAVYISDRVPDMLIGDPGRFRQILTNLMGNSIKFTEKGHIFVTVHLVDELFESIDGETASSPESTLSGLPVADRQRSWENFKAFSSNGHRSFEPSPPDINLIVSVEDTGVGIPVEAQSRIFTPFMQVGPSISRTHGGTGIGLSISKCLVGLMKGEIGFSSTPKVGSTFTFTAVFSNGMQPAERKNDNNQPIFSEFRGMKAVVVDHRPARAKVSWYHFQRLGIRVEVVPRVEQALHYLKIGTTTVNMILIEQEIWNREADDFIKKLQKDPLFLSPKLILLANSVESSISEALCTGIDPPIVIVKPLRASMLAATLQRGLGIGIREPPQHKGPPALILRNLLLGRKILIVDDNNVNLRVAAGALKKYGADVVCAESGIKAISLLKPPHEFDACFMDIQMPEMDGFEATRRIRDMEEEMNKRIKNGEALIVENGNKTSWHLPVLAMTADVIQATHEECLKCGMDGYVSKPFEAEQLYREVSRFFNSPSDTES
Protocol: Escherichia coli strains KMI001 harbouring the plasmid pIN-III-AHK4 or pSTV28-AHK3 were grown overnight at 25° C. in M9 media enriched with 0.1% casamino acids to OD600˜1. The preculture was diluted 1:600 in 1 ml M9 medium containing 0.1% casamino acids and 1 μL stock solution of either the tested compound (10^−7 M-5×10^−5 M) or solvent control (DMSO, ethanol, methanol) were added. The cultures were further grown at 25° C. in microtiter plate, 200 μL per well. […] The cultures were centrifuged and 50 μL aliquots of the supernatant were transferred to microtiter plate containing 2 μL 50 mM 4-methyl umbelliferyl galactoside which was subsequently incubated for 1 h at 37° C. The reaction was stopped by adding 100 μL 0.2 M Na2CO3. Fluorescence was measured using a Fluoroscan Ascent (Labsystems, Finland) at the excitation and emission wavelengths of 365 and 460 nm, respectively. The OD600 of remaining culture was determined and β-galactosidase activity was calculated as nmol 4-methylumbelliferone×OD600^−1×h^−1.

[1] = test system: CKX1 overproducing (35S:CKX1) Arabidopsis seedlings; assay: In vitro shoot and root growth of cytokinin deficient Arabidopsis plants; type: in vivo
Text: Constitutive overexpression of CKX in 35S:CKX1 plants leads to enhanced root growth. If CKX inhibitor can restore WT phenotype, it is expected that inhibition of the CKX activity in 35S:AtCKX1 plants should thus have no effect or inhibit their root growth. Such observation was done in case of INCYDE, but not compound 12.

COc1cccc(Nc2nc(Cl)nc3c2ncn3C2CCCCO2)c1 (stereo not drawn) [compound 12, 2-chloro-6-(3-methoxyanilino)-9-(tetrahydropyran-2-yl)purine]
AtCKX2 inhibition, times stronger than thidiazuron (recombinant AtCKX2): ~3 times | AtCKX2 inhibition, times weaker than INCYDE (recombinant AtCKX2): ~3 times | IC50 (recombinant AtCKX2; 30 μM iP substrate, 30 min, 37° C., read-out: IC50): 19.5 µM | ability to activate cytokinin receptor AHK3 (AHK3): very low ability to activate | complementation of wild type shoot phenotype ([1]; 0.1 μM in MS medium, FIG. 3, 4): led to restauration of wild type shoot phenotype | root biomass of 35S:CKX1 plants ([1]; tested concentration range, FIG. 5): strong dose-dependent positive effect
